Columns and labels:
[1] = biological target: T1, serotonin (5-HT) reuptake (Rattus norvegicus, UniProt P31652); assay: Inhibition of serotonin (5HT) reuptake in synaptosomes from rat brain; assay type: biochemical; details: test concentration of 10 μM
T1 construct: synaptosomes are freshly isolated from areas of the rat brain; from tissue; host or cells: rat brain synaptosomes (P2 fraction)
How it was run: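 Compounds screened at 10 μM and reported as percent inhibition of serotonin uptake. Uptake measured in a freshly prepared P2 synaptosomal fraction from rat brain.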

[2] = biological target: T2, human bradykinin 1 receptor (B1R) (Homo sapiens, UniProt P46663); assay: Functional investigation on the human bradykinin 1 receptor (B1R), Ca2+ FLIPR assay in CHO K1 hB1R cells; assay type: cell-based; details: B1R antagonism human; test substance 10 μM; Ca2+ FLIPR, CHO K1 hB1R cells
T2 construct: expressed in transfected cells; host or cells: CHO K1 cells
T2 sequence (P46663 1-353): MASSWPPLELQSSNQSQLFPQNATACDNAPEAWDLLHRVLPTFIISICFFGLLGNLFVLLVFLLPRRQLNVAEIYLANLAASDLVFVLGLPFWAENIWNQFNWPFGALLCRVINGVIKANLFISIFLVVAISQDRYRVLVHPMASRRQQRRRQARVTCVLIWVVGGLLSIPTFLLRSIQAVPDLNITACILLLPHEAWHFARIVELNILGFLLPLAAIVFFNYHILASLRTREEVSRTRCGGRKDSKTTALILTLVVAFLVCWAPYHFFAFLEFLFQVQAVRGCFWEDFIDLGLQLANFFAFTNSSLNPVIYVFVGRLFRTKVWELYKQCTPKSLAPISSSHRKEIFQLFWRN
How it was run: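 Fluo-4 Ca2+ readout, peak fluorescence. Stable CHO K1 transfectants; compound pre-incubated 10-20 min, then EC80 agonist—Lys-Des-Arg9-BK for hB1R, Des-Arg9-BK for rB1R. % inhibition vs maximal inhibition; IC50 from multiple concentrations, duplicate/triplicate, ≥2 independent runs.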

T1 sequence (P31652 whole entry): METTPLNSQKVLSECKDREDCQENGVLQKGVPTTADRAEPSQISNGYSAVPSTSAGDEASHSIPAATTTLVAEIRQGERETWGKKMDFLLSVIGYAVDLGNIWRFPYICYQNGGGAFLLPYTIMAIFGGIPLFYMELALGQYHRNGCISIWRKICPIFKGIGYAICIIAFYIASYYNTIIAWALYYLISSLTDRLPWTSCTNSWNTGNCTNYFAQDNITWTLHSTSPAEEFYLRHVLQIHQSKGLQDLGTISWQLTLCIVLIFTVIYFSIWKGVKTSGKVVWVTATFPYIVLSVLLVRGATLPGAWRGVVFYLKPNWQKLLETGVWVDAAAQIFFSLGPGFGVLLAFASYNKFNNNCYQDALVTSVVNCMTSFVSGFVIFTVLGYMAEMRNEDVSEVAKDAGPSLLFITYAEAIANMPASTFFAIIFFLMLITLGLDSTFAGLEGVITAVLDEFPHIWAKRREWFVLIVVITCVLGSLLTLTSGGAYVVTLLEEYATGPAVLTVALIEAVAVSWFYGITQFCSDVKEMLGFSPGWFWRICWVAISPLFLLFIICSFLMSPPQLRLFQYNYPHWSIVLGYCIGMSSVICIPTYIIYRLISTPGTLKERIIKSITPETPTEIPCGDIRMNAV

Compound	5-HT (inhibition of reuptake of serotonin, % inhibition) [1]	B1R Ant. h [10 μM] % Inhibition [2]
CN(C)C(CCc1ccccc1)C1CCC(CNC(=O)COCCN(C)S(=O)(=O)c2ccc(F)cc2)CC1 (centres unmarked) [Example 539]	102%	27%
COc1ccc(S(=O)(=O)N2CCCCC2COCC(=O)NCCC2CCC(C(c3ccc(Cl)cc3)N(C)C)CC2)cc1OC (centres unmarked) [Example 540]	81%	−19%
COc1cc(C)c(S(=O)(=O)N2CCC(OCC(=O)NCC3CCC(C(c4ccc(F)cc4)N(C)C)CC3)C2)c(C)c1 (centres unmarked) [Example 541]	95%	100%
COc1cc(C)c(S(=O)(=O)N(CCOCC(=O)NCC2CCC(C(CCc3ccccc3)N(C)C)CC2)Cc2ccccc2)c(C)c1 (centres unmarked) [Example 542]	87%	103%

— US8106055B2, “Substituted amide compounds” (Gruenenthal GmbH, priority 2007, dated 2012)
